Read-outs that look alike come from different tables or passages of the source.
How the values were obtained:
Assay in all cases: SelectScreen Z-LYTE kinase activity assay (SI Table 6)
Format in all cases: biochemical
[1] = molecular target: protein kinases of the Z-LYTE panel (Homo sapiens, UniProt P54646)
How it was run: (§1)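 A counterscreen of 133 protein and 7 lipid kinases was run with one compound concentration, 1 μM 1938, in SelectScreen Adapta, Lantha or Z-LYTE assays.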

[2] = molecular target: protein kinases of the Z-LYTE panel (Homo sapiens, UniProt Q9H792)
protein kinases of the Z-LYTE panel (Homo sapiens, UniProt Q9H792), sequence (Q9H792 whole entry): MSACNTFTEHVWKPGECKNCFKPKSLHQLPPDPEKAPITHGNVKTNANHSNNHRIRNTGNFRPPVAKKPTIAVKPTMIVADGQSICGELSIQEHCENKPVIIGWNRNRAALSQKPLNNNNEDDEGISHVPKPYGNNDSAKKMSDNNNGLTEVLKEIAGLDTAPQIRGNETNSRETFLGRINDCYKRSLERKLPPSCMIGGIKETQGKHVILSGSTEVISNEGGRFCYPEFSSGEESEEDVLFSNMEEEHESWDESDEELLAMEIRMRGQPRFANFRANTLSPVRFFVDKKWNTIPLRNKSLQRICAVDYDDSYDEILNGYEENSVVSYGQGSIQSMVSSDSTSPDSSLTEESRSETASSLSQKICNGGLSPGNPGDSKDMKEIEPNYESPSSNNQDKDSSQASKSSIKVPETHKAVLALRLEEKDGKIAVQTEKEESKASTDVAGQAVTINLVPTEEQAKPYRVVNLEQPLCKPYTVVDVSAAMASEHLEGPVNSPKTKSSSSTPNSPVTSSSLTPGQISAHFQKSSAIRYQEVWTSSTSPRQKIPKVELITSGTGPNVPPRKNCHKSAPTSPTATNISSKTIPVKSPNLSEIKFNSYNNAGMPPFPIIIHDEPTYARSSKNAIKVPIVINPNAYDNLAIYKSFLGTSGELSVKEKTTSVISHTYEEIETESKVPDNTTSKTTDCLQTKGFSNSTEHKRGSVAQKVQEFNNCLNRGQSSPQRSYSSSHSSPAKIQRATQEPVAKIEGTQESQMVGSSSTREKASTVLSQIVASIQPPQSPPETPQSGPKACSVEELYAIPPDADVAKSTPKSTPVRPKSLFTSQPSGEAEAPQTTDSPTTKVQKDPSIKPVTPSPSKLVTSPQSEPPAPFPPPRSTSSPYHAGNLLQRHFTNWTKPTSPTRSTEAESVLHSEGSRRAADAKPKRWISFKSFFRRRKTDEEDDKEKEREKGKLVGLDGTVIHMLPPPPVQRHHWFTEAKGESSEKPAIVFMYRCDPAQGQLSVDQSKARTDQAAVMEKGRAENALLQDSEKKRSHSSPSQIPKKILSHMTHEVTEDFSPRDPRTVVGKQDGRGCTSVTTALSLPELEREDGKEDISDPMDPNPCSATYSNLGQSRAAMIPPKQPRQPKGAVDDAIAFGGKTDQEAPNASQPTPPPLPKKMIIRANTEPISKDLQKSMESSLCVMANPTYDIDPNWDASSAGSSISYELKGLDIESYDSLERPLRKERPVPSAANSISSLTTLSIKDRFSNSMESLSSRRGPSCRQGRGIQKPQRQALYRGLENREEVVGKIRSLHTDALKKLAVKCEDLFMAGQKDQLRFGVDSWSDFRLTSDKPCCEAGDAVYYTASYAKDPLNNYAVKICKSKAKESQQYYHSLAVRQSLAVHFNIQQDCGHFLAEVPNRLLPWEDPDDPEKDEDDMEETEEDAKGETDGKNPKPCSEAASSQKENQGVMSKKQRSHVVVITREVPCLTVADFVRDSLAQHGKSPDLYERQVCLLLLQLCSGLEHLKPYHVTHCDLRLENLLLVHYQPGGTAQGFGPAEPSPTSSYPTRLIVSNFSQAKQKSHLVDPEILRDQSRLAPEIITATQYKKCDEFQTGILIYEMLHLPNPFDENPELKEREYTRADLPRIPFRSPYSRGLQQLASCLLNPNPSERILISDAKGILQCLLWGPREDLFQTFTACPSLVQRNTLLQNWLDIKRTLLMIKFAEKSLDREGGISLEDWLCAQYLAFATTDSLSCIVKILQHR
How it was run: as §1

[3] = molecular target: protein kinases of the Z-LYTE panel (Homo sapiens, UniProt P21802)
How it was run: as §1

[4] = molecular target: protein kinases of the Z-LYTE panel (Homo sapiens, UniProt P00533)
protein kinases of the Z-LYTE panel (Homo sapiens, UniProt P00533), sequence (P00533 25-1210): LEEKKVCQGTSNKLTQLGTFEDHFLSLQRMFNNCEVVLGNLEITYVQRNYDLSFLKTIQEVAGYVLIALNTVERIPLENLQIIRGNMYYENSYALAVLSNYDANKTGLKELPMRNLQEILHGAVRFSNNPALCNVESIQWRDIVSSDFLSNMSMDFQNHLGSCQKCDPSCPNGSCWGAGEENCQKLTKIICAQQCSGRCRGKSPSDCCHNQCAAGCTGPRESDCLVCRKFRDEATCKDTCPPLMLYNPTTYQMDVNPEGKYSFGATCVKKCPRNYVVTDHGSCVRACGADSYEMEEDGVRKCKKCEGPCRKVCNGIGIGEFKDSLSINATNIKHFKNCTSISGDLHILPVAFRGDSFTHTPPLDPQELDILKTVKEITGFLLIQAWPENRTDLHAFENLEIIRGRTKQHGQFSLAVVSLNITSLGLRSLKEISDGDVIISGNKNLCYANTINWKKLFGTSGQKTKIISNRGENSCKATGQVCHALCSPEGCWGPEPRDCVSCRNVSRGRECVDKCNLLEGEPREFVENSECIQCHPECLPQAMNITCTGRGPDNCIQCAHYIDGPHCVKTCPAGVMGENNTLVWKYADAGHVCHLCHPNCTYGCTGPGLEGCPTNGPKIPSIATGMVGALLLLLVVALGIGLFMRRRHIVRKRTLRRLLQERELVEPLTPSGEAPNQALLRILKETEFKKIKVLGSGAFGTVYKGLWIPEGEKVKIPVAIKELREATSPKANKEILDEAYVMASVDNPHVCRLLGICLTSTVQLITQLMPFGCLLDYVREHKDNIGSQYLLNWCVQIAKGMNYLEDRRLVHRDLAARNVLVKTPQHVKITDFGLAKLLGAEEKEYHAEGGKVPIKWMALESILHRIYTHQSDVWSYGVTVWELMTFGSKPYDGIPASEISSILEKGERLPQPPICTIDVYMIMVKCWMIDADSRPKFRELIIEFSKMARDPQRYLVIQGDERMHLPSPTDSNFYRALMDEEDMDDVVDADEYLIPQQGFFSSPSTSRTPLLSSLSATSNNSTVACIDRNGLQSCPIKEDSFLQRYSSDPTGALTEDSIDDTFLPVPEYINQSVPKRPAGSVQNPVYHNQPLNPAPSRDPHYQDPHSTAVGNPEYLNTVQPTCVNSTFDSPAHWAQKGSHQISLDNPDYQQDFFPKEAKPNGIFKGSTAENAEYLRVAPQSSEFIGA
How it was run: as §1

[5] = molecular target: protein kinases of the Z-LYTE panel (Homo sapiens, UniProt Q16539)
protein kinases of the Z-LYTE panel (Homo sapiens, UniProt Q16539), sequence (Q16539 whole entry): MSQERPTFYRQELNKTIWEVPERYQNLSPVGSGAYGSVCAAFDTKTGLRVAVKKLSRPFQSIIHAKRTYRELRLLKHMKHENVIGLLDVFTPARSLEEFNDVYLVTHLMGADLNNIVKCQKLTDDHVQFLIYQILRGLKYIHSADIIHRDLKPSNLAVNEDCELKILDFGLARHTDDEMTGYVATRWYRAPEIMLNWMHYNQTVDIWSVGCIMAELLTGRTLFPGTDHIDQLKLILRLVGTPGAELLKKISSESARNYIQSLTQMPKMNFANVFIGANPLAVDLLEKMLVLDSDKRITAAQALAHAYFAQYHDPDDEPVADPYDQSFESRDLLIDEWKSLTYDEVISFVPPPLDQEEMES
How it was run: as §1

[6] = molecular target: protein kinases of the Z-LYTE panel (Homo sapiens, UniProt P04629)
protein kinases of the Z-LYTE panel (Homo sapiens, UniProt P04629), sequence (P04629 33-796): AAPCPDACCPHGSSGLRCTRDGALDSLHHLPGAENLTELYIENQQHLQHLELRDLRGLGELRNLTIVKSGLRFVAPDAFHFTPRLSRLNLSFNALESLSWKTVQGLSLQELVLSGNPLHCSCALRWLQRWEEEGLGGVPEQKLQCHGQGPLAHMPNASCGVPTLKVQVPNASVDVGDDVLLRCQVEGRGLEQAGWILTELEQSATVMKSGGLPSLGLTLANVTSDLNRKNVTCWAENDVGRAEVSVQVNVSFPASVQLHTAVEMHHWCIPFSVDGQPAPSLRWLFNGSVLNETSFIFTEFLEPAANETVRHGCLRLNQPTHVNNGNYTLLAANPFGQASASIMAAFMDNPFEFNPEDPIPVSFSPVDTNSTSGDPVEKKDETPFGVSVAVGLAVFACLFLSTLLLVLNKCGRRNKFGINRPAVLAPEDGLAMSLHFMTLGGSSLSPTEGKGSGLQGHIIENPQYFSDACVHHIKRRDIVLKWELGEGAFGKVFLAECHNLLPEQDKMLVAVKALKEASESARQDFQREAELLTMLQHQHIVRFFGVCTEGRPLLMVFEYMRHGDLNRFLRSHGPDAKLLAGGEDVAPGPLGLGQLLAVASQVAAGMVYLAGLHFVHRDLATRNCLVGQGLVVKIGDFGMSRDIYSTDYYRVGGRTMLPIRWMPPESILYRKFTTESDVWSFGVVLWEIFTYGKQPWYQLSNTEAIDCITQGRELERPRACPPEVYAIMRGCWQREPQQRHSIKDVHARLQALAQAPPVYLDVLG
How it was run: as §1

[7] = molecular target: protein kinases of the Z-LYTE panel (Homo sapiens, UniProt O96013)
How it was run: as §1

[8] = molecular target: T1, protein kinases of the Z-LYTE panel (Homo sapiens, UniProt Q13976)
T1 sequence (Q13976 1-671): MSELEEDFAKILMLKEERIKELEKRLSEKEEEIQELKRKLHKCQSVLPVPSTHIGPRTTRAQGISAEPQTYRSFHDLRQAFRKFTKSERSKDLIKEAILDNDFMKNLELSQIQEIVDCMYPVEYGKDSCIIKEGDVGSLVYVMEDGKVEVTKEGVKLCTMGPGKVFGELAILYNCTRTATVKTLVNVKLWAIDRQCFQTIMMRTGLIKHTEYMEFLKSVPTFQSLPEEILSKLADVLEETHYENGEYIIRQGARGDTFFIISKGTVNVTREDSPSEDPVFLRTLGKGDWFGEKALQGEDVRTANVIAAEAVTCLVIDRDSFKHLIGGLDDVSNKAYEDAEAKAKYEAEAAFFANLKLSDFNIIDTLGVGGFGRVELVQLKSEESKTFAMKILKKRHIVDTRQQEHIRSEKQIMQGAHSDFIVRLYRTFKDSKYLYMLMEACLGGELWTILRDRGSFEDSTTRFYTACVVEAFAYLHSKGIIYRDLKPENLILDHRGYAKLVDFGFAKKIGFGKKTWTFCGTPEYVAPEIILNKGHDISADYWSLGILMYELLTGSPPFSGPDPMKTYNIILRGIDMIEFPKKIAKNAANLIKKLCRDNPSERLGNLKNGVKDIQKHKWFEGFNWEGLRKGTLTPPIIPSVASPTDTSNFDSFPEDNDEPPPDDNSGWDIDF
How it was run: as §1

[9] = molecular target: protein kinases of the Z-LYTE panel (Homo sapiens, UniProt P49761)
How it was run: as §1

[10] = molecular target: protein kinases of the Z-LYTE panel (Homo sapiens, UniProt P16591)
How it was run: as §1

[11] = molecular target: protein kinases of the Z-LYTE panel (Homo sapiens, UniProt P09619)
protein kinases of the Z-LYTE panel (Homo sapiens, UniProt P09619), sequence (P09619 33-1106): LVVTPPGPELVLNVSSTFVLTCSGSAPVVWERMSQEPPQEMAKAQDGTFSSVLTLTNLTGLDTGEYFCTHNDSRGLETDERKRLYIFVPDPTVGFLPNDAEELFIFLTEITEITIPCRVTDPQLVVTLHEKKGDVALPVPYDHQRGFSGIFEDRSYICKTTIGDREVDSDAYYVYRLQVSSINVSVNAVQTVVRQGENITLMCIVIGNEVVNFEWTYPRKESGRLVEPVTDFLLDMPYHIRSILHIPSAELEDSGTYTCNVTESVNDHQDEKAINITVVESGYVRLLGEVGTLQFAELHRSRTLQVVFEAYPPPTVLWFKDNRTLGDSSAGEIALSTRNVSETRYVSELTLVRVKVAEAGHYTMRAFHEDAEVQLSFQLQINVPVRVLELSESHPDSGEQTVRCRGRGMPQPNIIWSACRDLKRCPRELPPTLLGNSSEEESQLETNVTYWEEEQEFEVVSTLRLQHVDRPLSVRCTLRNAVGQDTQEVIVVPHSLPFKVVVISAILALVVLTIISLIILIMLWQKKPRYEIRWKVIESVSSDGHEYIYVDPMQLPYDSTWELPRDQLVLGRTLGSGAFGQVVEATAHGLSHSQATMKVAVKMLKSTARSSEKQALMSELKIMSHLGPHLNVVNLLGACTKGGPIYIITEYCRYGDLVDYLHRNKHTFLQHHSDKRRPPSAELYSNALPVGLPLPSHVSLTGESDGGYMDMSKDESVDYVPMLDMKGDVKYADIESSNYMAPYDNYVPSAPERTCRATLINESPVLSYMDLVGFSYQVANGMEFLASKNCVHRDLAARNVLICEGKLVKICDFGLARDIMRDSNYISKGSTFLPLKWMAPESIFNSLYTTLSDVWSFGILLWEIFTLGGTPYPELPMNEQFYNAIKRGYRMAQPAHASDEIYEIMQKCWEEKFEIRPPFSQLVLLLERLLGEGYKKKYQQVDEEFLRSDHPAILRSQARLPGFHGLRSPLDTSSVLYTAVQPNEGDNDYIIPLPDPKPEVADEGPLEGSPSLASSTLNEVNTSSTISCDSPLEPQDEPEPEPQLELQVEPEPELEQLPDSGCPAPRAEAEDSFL
How it was run: as §1

Compound: CCN1CCN(c2ccc(Nc3cc(Nc4cccc5c4N(C(C)=O)CC5)ccn3)cc2)CC1 [Compound 1938]
- inhibition at 1 µM ([1]; read-out: % Inhibition Point 1): 8%
- inhibition at 1 µM ([1]; read-out: % Inhibition Point 2): 7%
- inhibition at 1 µM ([1]; read-out: % Inhibition mean): 8%
- inhibition at 1 µM ([2]; read-out: % Inhibition Point 1): 25%
- inhibition at 1 µM ([2]; read-out: % Inhibition Point 2): 18%
- inhibition at 1 µM ([2]; read-out: % Inhibition mean): 21%
- inhibition at 1 µM ([3]; read-out: % Inhibition Point 1): 13%
- inhibition at 1 µM ([3]; read-out: % Inhibition Point 2): 16%
- inhibition at 1 µM ([3]; read-out: % Inhibition mean): 14%
- inhibition at 1 µM ([4]; read-out: % Inhibition Point 1): 18%
- inhibition at 1 µM ([4]; read-out: % Inhibition Point 2): 17%
- inhibition at 1 µM ([4]; read-out: % Inhibition mean): 18%
- inhibition at 1 µM ([5]; read-out: % Inhibition Point 1): 9%
- inhibition at 1 µM ([5]; read-out: % Inhibition Point 2): 9%
- inhibition at 1 µM ([5]; read-out: % Inhibition mean): 9%
- inhibition at 1 µM ([6]; read-out: % Inhibition Point 1): 26%
- inhibition at 1 µM ([6]; read-out: % Inhibition Point 2): 20%
- inhibition at 1 µM ([6]; read-out: % Inhibition mean): 23%
- inhibition at 1 µM ([7]; read-out: % Inhibition Point 1): -3.77%
- inhibition at 1 µM ([7]; read-out: % Inhibition Point 2): -2.13%
- inhibition at 1 µM ([7]; read-out: % Inhibition mean): -3%
- inhibition at 1 µM ([8]; read-out: % Inhibition Point 1): 4.68%
- inhibition at 1 µM ([8]; read-out: % Inhibition Point 2): -0.193%
- inhibition at 1 µM ([8]; read-out: % Inhibition mean): 2.24%
- inhibition at 1 µM ([9]; read-out: % Inhibition Point 1): -1%
- inhibition at 1 µM ([9]; read-out: % Inhibition Point 2): 0.422%
- inhibition at 1 µM ([9]; read-out: % Inhibition mean): -0.267%
- inhibition at 1 µM ([10]; read-out: % Inhibition Point 1): -5.31%
- inhibition at 1 µM ([10]; read-out: % Inhibition Point 2): -2.44%
- inhibition at 1 µM ([10]; read-out: % Inhibition mean): -4%
- inhibition at 1 µM ([11]; read-out: % Inhibition Point 1): 7%
- inhibition at 1 µM ([11]; read-out: % Inhibition Point 2): 7%
- inhibition at 1 µM ([11]; read-out: % Inhibition mean): 7%
